Reference: ChEMBL document CHEMBL5303573, “Mapping human microbiome drug metabolism by gut bacteria and their genes” (Nature, 2019)

test: The drug is tested on Bacteroides sp. WH2 strain: WH2 for biotransformation. The drug concentrations were measured before and after a 12-h incubation by liquid-chromatography-coupled mass spectrometry (LC–MS); details: bacteroides sp. wh2, 12 h, 2 µM

| Compound | Bacterial Biotransformation |
| --- | --- |
| CN[C@H]1CC[C@@H](c2ccc(Cl)c(Cl)c2)c2ccccc21 [SERTRALINE] | Compound NOT metabolized |
| O=C(NCc1ccccc1)OCCO [BURAMATE] | Compound NOT metabolized |
| C[C@]12CCC(=O)C=C1[C@@H]1C[C@@H]1[C@H]1[C@@H]3[C@@H]4C[C@@H]4[C@@]4(CCC(=O)O4)[C@@]3(C)CC[C@@H]12 [DROSPIRENONE] | Compound NOT metabolized |

test: The drug is tested on Clostridium asparagiforme strain: DSM15981 for biotransformation. The drug concentrations were measured before and after a 12-h incubation by liquid-chromatography-coupled mass spectrometry (LC–MS); assay type: ADME; parameters: dose 2 uM, timepoint 0 vs 12 hours; details: enterocloster asparagiformis, 2 µM

| Compound | Bacterial Biotransformation |
| --- | --- |
| CN[C@H]1CC[C@@H](c2ccc(Cl)c(Cl)c2)c2ccccc21 [SERTRALINE] | Compound NOT metabolized |
| O=C(NCc1ccccc1)OCCO [BURAMATE] | Compound NOT metabolized |
| C[C@]12CCC(=O)C=C1[C@@H]1C[C@@H]1[C@H]1[C@@H]3[C@@H]4C[C@@H]4[C@@]4(CCC(=O)O4)[C@@]3(C)CC[C@@H]12 [DROSPIRENONE] | Compound NOT metabolized |

details: limosilactobacillus reuteri cf48-3a, 12 h, 2 µM
Description: The drug is tested on Lactobacillus reuteri CF48-3A strain: BEI HM-102 for biotransformation. The drug concentrations were measured before and after a 12-h incubation by liquid-chromatography-coupled mass spectrometry (LC–MS)

| Compound | Bacterial Biotransformation |
| --- | --- |
| CN[C@H]1CC[C@@H](c2ccc(Cl)c(Cl)c2)c2ccccc21 [SERTRALINE] | Compound NOT metabolized |
| O=C(NCc1ccccc1)OCCO [BURAMATE] | Compound NOT metabolized |
| C[C@]12CCC(=O)C=C1[C@@H]1C[C@@H]1[C@H]1[C@@H]3[C@@H]4C[C@@H]4[C@@]4(CCC(=O)O4)[C@@]3(C)CC[C@@H]12 [DROSPIRENONE] | Compound NOT metabolized |

test: The drug is tested on Bifidobacterium longum subsp. Infantis strain: CCUG52486 for biotransformation. The drug concentrations were measured before and after a 12-h incubation by liquid-chromatography-coupled mass spectrometry (LC–MS); details: 2 µM

| Compound | Bacterial Biotransformation |
| --- | --- |
| CN[C@H]1CC[C@@H](c2ccc(Cl)c(Cl)c2)c2ccccc21 [SERTRALINE] | Compound NOT metabolized |
| O=C(NCc1ccccc1)OCCO [BURAMATE] | Compound NOT metabolized |
| C[C@]12CCC(=O)C=C1[C@@H]1C[C@@H]1[C@H]1[C@@H]3[C@@H]4C[C@@H]4[C@@]4(CCC(=O)O4)[C@@]3(C)CC[C@@H]12 [DROSPIRENONE] | Compound NOT metabolized |

test: The drug is tested on Bacteroides coprophilus strain: DSM18228 for biotransformation. The drug concentrations were measured before and after a 12-h incubation by liquid-chromatography-coupled mass spectrometry (LC–MS); details: 2 µM

| Compound | Bacterial Biotransformation |
| --- | --- |
| O=C(NCc1ccccc1)OCCO [BURAMATE] | Compound NOT metabolized |

test: The drug is tested on Bacteroides pectinophilus strain: ATCC43243 for biotransformation. The drug concentrations were measured before and after a 12-h incubation by liquid-chromatography-coupled mass spectrometry (LC–MS); details: 2 µM

| Compound | Bacterial Biotransformation |
| --- | --- |
| CN[C@H]1CC[C@@H](c2ccc(Cl)c(Cl)c2)c2ccccc21 [SERTRALINE] | Compound NOT metabolized |
| O=C(NCc1ccccc1)OCCO [BURAMATE] | Compound NOT metabolized |
| C[C@]12CCC(=O)C=C1[C@@H]1C[C@@H]1[C@H]1[C@@H]3[C@@H]4C[C@@H]4[C@@]4(CCC(=O)O4)[C@@]3(C)CC[C@@H]12 [DROSPIRENONE] | Compound NOT metabolized |

details: bacteroides intestinalis, 12 h, 2 µM
Description: The drug is tested on Bacteroides intestinalis strain: DSM17393 for biotransformation. The drug concentrations were measured before and after a 12-h incubation by liquid-chromatography-coupled mass spectrometry (LC–MS)

| Compound | Bacterial Biotransformation |
| --- | --- |
| CN[C@H]1CC[C@@H](c2ccc(Cl)c(Cl)c2)c2ccccc21 [SERTRALINE] | Compound NOT metabolized |
| O=C(NCc1ccccc1)OCCO [BURAMATE] | Compound NOT metabolized |
| C[C@]12CCC(=O)C=C1[C@@H]1C[C@@H]1[C@H]1[C@@H]3[C@@H]4C[C@@H]4[C@@]4(CCC(=O)O4)[C@@]3(C)CC[C@@H]12 [DROSPIRENONE] | Compound NOT metabolized |

test: The drug is tested on Parabacteroides merdae strain: ATCC43184 for biotransformation. The drug concentrations were measured before and after a 12-h incubation by liquid-chromatography-coupled mass spectrometry (LC–MS); details: 2 µM

| Compound | Bacterial Biotransformation |
| --- | --- |
| CN[C@H]1CC[C@@H](c2ccc(Cl)c(Cl)c2)c2ccccc21 [SERTRALINE] | Compound NOT metabolized |
| O=C(NCc1ccccc1)OCCO [BURAMATE] | Compound NOT metabolized |

test: The drug is tested on Collinsella aerofaciens strain: ATCC25986 for biotransformation. The drug concentrations were measured before and after a 12-h incubation by liquid-chromatography-coupled mass spectrometry (LC–MS); details: 2 µM

| Compound | Bacterial Biotransformation |
| --- | --- |
| CN[C@H]1CC[C@@H](c2ccc(Cl)c(Cl)c2)c2ccccc21 [SERTRALINE] | Compound NOT metabolized |
| O=C(NCc1ccccc1)OCCO [BURAMATE] | Compound NOT metabolized |
| C[C@]12CCC(=O)C=C1[C@@H]1C[C@@H]1[C@H]1[C@@H]3[C@@H]4C[C@@H]4[C@@]4(CCC(=O)O4)[C@@]3(C)CC[C@@H]12 [DROSPIRENONE] | Compound NOT metabolized |

test: The drug is tested on Ruminococcus gnavus strain: ATCC29149 for biotransformation. The drug concentrations were measured before and after a 12-h incubation by liquid-chromatography-coupled mass spectrometry (LC–MS); details: mediterraneibacter gnavus, 2 µM

| Compound | Bacterial Biotransformation |
| --- | --- |
| CN[C@H]1CC[C@@H](c2ccc(Cl)c(Cl)c2)c2ccccc21 [SERTRALINE] | Compound NOT metabolized |
| O=C(NCc1ccccc1)OCCO [BURAMATE] | Compound NOT metabolized |
| C[C@]12CCC(=O)C=C1[C@@H]1C[C@@H]1[C@H]1[C@@H]3[C@@H]4C[C@@H]4[C@@]4(CCC(=O)O4)[C@@]3(C)CC[C@@H]12 [DROSPIRENONE] | Compound metabolized |

details: bacteroides stercoris, 12 h, 2 µM
Description: The drug is tested on Bacteroides stercoris strain: ATCC43183 for biotransformation. The drug concentrations were measured before and after a 12-h incubation by liquid-chromatography-coupled mass spectrometry (LC–MS)

| Compound | Bacterial Biotransformation |
| --- | --- |
| CN[C@H]1CC[C@@H](c2ccc(Cl)c(Cl)c2)c2ccccc21 [SERTRALINE] | Compound NOT metabolized |
| O=C(NCc1ccccc1)OCCO [BURAMATE] | Compound NOT metabolized |
| C[C@]12CCC(=O)C=C1[C@@H]1C[C@@H]1[C@H]1[C@@H]3[C@@H]4C[C@@H]4[C@@]4(CCC(=O)O4)[C@@]3(C)CC[C@@H]12 [DROSPIRENONE] | Compound NOT metabolized |

test: The drug is tested on Edwardsiella tarda strain: ATCC23685 for biotransformation. The drug concentrations were measured before and after a 12-h incubation by liquid-chromatography-coupled mass spectrometry (LC–MS); details: 2 µM

| Compound | Bacterial Biotransformation |
| --- | --- |
| CN[C@H]1CC[C@@H](c2ccc(Cl)c(Cl)c2)c2ccccc21 [SERTRALINE] | Compound NOT metabolized |
| O=C(NCc1ccccc1)OCCO [BURAMATE] | Compound NOT metabolized |
| C[C@]12CCC(=O)C=C1[C@@H]1C[C@@H]1[C@H]1[C@@H]3[C@@H]4C[C@@H]4[C@@]4(CCC(=O)O4)[C@@]3(C)CC[C@@H]12 [DROSPIRENONE] | Compound NOT metabolized |

test: The drug is tested on Anaerococcus hydrogenalis strain: DSM7454 for biotransformation. The drug concentrations were measured before and after a 12-h incubation by liquid-chromatography-coupled mass spectrometry (LC–MS); details: 2 µM

| Compound | Bacterial Biotransformation |
| --- | --- |
| CN[C@H]1CC[C@@H](c2ccc(Cl)c(Cl)c2)c2ccccc21 [SERTRALINE] | Compound NOT metabolized |
| C[C@]12CCC(=O)C=C1[C@@H]1C[C@@H]1[C@H]1[C@@H]3[C@@H]4C[C@@H]4[C@@]4(CCC(=O)O4)[C@@]3(C)CC[C@@H]12 [DROSPIRENONE] | Compound NOT metabolized |

details: enterocloster bolteae, 12 h, 2 µM
Description: The drug is tested on Clostridium bolteae strain: ATCCBAA-613 for biotransformation. The drug concentrations were measured before and after a 12-h incubation by liquid-chromatography-coupled mass spectrometry (LC–MS)

| Compound | Bacterial Biotransformation |
| --- | --- |
| O=C(NCc1ccccc1)OCCO [BURAMATE] | Compound NOT metabolized |
| C[C@]12CCC(=O)C=C1[C@@H]1C[C@@H]1[C@H]1[C@@H]3[C@@H]4C[C@@H]4[C@@]4(CCC(=O)O4)[C@@]3(C)CC[C@@H]12 [DROSPIRENONE] | Compound NOT metabolized |

details: bacteroides thetaiotaomicron, 12 h, 2 µM
Description: The drug is tested on Bacteroides thetaiotaomicron strain: 7330 for biotransformation. The drug concentrations were measured before and after a 12-h incubation by liquid-chromatography-coupled mass spectrometry (LC–MS)

| Compound | Bacterial Biotransformation |
| --- | --- |
| CN[C@H]1CC[C@@H](c2ccc(Cl)c(Cl)c2)c2ccccc21 [SERTRALINE] | Compound NOT metabolized |
| O=C(NCc1ccccc1)OCCO [BURAMATE] | Compound NOT metabolized |
| C[C@]12CCC(=O)C=C1[C@@H]1C[C@@H]1[C@H]1[C@@H]3[C@@H]4C[C@@H]4[C@@]4(CCC(=O)O4)[C@@]3(C)CC[C@@H]12 [DROSPIRENONE] | Compound NOT metabolized |

test: The drug is tested on Collinsella intestinalis strain: DSM13280 for biotransformation. The drug concentrations were measured before and after a 12-h incubation by liquid-chromatography-coupled mass spectrometry (LC–MS); details: 2 µM

| Compound | Bacterial Biotransformation |
| --- | --- |
| CN[C@H]1CC[C@@H](c2ccc(Cl)c(Cl)c2)c2ccccc21 [SERTRALINE] | Compound NOT metabolized |
| O=C(NCc1ccccc1)OCCO [BURAMATE] | Compound NOT metabolized |
| C[C@]12CCC(=O)C=C1[C@@H]1C[C@@H]1[C@H]1[C@@H]3[C@@H]4C[C@@H]4[C@@]4(CCC(=O)O4)[C@@]3(C)CC[C@@H]12 [DROSPIRENONE] | Compound NOT metabolized |

test: The drug is tested on Bacteroides dorei strain: DSM17855 for biotransformation. The drug concentrations were measured before and after a 12-h incubation by liquid-chromatography-coupled mass spectrometry (LC–MS); details: phocaeicola dorei, 2 µM

| Compound | Bacterial Biotransformation |
| --- | --- |
| CN[C@H]1CC[C@@H](c2ccc(Cl)c(Cl)c2)c2ccccc21 [SERTRALINE] | Compound NOT metabolized |
| O=C(NCc1ccccc1)OCCO [BURAMATE] | Compound NOT metabolized |
| C[C@]12CCC(=O)C=C1[C@@H]1C[C@@H]1[C@H]1[C@@H]3[C@@H]4C[C@@H]4[C@@]4(CCC(=O)O4)[C@@]3(C)CC[C@@H]12 [DROSPIRENONE] | Compound metabolized |

details: bacteroides eggerthii, 12 h, 2 µM
Description: The drug is tested on Bacteroides eggerthii strain: DSM20697 for biotransformation. The drug concentrations were measured before and after a 12-h incubation by liquid-chromatography-coupled mass spectrometry (LC–MS)

| Compound | Bacterial Biotransformation |
| --- | --- |
| CN[C@H]1CC[C@@H](c2ccc(Cl)c(Cl)c2)c2ccccc21 [SERTRALINE] | Compound NOT metabolized |
| O=C(NCc1ccccc1)OCCO [BURAMATE] | Compound NOT metabolized |
| C[C@]12CCC(=O)C=C1[C@@H]1C[C@@H]1[C@H]1[C@@H]3[C@@H]4C[C@@H]4[C@@]4(CCC(=O)O4)[C@@]3(C)CC[C@@H]12 [DROSPIRENONE] | Compound NOT metabolized |

test: The drug is tested on Bacteroides fragilis strain: HMW610 for biotransformation. The drug concentrations were measured before and after a 12-h incubation by liquid-chromatography-coupled mass spectrometry (LC–MS); details: 2 µM

| Compound | Bacterial Biotransformation |
| --- | --- |
| CN[C@H]1CC[C@@H](c2ccc(Cl)c(Cl)c2)c2ccccc21 [SERTRALINE] | Compound NOT metabolized |
| O=C(NCc1ccccc1)OCCO [BURAMATE] | Compound NOT metabolized |
| C[C@]12CCC(=O)C=C1[C@@H]1C[C@@H]1[C@H]1[C@@H]3[C@@H]4C[C@@H]4[C@@]4(CCC(=O)O4)[C@@]3(C)CC[C@@H]12 [DROSPIRENONE] | Compound metabolized |
